In US20230000996A1, “RAPAFUCIN DERIVATIVE COMPOUNDS AND METHODS OF USE THEREOF” (The Johns Hopkins University, priority 2019, published 2023):

Test: Nucleoside uptake, single concentration assay (Rel.Uptake); cell line indicated in each table
Type: cell-based
Conditions: 293T cells, response relative to DMSO
Protocol: Nucleoside Uptake Assay (uptake). Nuceloside uptake assays were performed with using 3H-Thymidine as described in Guo et al. (2018) Nat. Chem. 11:254-63. Specific cell lines are indicated in each assay and cultured in complete growth media. Activity is scored according to the IC50 values relative to DMSO control. “Low” indicates an IC50 greater than 600 nM, “Medium” indicates an IC50 between 300 nM and 600 nM “High” indicates an IC50 less than 300 nM. “Rel.Uptake” refers to uptake activity characterization relative to a single concentration assay. “Low” indicates a response greater than 0.6 times the activity relative to DMSO, “Medium” indicates a response between 0.6 and 0.3 times the activity relative to DMSO, “High” indicates a response less than 0.3 times the activity relative to DMSO.

[1] = nucleoside uptake, single concentration assay

Structure (SMILES) | Rel. Uptake, 293T [1] | Rel. Uptake, 293T (single concentration)
COc1cc(OC)c(OC)cc1CC[C@H]1OC(=O)[C@@H]2CCCCN2C(=O)C(=O)C(C)(C)COC(=O)C=CCCN(C)C(=O)[C@@H](Cc2ccccc2)NC(=O)CN(C)C(=O)[C@@H](Cc2ccccc2)NC(=O)[C@H](Cc2ccc(O)cc2)N(C)C(=O)COc2cccc1c2 [Compound 1581] | medium | –
COc1ccc(CC[C@H]2OC(=O)[C@@H]3CNCCN3C(=O)C(=O)C(C)(C)COC(=O)C=CCCN(C)C(=O)[C@@H](Cc3ccccc3)NC(=O)CN(C)C(=O)[C@@H](Cc3ccccc3)NC(=O)[C@H](Cc3ccc(O)cc3)N(C)C(=O)COc3cccc2c3)cc1OC [Compound 1573] | low | –
COc1ccc(CC[C@H]2OC(=O)[C@@H]3CN(C)CCN3C(=O)C(=O)C(C)(C)COC(=O)C=CCCN(C)C(=O)[C@@H](Cc3ccccc3)NC(=O)CN(C)C(=O)[C@@H](Cc3ccccc3)NC(=O)[C@H](Cc3ccc(O)cc3)N(C)C(=O)COc3cccc2c3)cc1OC [Compound 1574] | low | –
COc1cc(CC[C@H]2OC(=O)[C@@H]3CCCCN3C(=O)C(=O)C(C)(C)COC(=O)C=CCCN(C)C(=O)[C@@H](Cc3ccccc3)NC(=O)CN(C)C(=O)[C@@H](Cc3ccccc3)NC(=O)[C@H](Cc3ccc(O)cc3)N(C)C(=O)COc3cccc2c3)c(OC)c(OC)c1 [Compound 1582] | low | –
COc1ccc(CC[C@H]2OC(=O)[C@@H]3CCCCN3C(=O)C(=O)C(C)(C)COC(=O)C=CCCN(C)NC(c3ccccc3)C(=O)N(C)[C@@H](Cc3ccccc3)C(=O)N3CCC[C@@H]3C(=O)N(C)[C@@H](CC(C)C)C(=O)C(=O)CCOc3cccc2c3)cc1OC (stereo partly shown) [Compound 1556] | low | –
COc1ccc(CC[C@H]2OC(=O)[C@@H]3CCCCN3C(=O)C(=O)C(C)(C)COC(=O)C=CCCN(C)C(=O)[C@@H](Cc3ccccc3)NC(=O)CN(C)C(=O)[C@@H](Cc3ccccc3)NC(=O)[C@H](Cc3ccc(O)cc3)N(C)C(=O)COc3cccc2c3)c(O)c1OC [Compound 1584] | low | –
COc1ccc(CC[C@H]2OC(=O)[C@@H]3CCCCN3C(=O)C(=O)C(C)(C)COC(=O)C=CCCN(C)C(=O)[C@@H](Cc3ccccc3)NC(=O)CN(C)C(=O)[C@@H](Cc3ccccc3)NC(=O)[C@H](Cc3ccc(O)cc3)N(C)C(=O)COc3ccc(F)c2c3)cc1OC [Compound 1575] | low | –
COc1ccc(CC[C@H]2OC(=O)[C@@H]3CCCCN3C(=O)C(=O)C(C)(C)COC(=O)C=CCCN(C)C(=O)[C@@H](Cc3ccccc3)NC(=O)CN(C)C(=O)[C@@H](Cc3ccccc3)NC(=O)[C@H](Cc3ccc(O)cc3)N(C)C(=O)COc3cccc2c3)c(OC)c1OC [Compound 1577] | medium | –
COc1ccc(CC[C@H]2OC(=O)[C@@H]3CCCCN3C(=O)C(=O)C(C)(C)COC(=O)C=CCCN(C)C(=O)[C@@H](Cc3ccccc3)NC(=O)CN(C)C(=O)[C@@H](Cc3ccccc3)NC(=O)[C@H](Cc3ccc(O)cc3)N(C)C(=O)COc3cccc2c3)c(F)c1OC [Compound 1571] | low | –
COc1ccc(CC[C@H]2OC(=O)[C@@H]3CCCCN3C(=O)C(=O)C(C)(C)COC(=O)C=CCCN(C)C(=O)[C@H](CC(C)C)N(C)C(=O)[C@H]3CCCN3C(=O)[C@H](Cc3cccc(NC(C)=O)c3)NC(=O)[C@H](c3ccccc3)NC(=O)CCC(=O)Nc3cccc2c3)cc1OC [Compound 1588] | High (“High” indicates a response less than 0.3 times the activity relative to DMSO) | –
COc1ccc(CC[C@H]2OC(=O)[C@@H]3CCCCN3C(=O)C(=O)C(C)(C)COC(=O)C=CCCN(C)C(=O)[C@@H]3CCCN3C(=O)[C@H](COC(C)(C)C)N(C)C(=O)[C@H](c3ccccc3)NC(=O)[C@H](C)N(C)C(=O)COc3cc(F)cc2c3)cc1OC [Compound 1596] | Low (“Low” indicates a response greater than 0.6 times the activity relative to DMSO) | –
COc1ccc(CC[C@H]2OC(=O)[C@@H]3CCCCN3C(=O)C(=O)C(C)(C)COC(=O)C=CCCN(C)C(=O)[C@H](CC(C)C)N(C)C(=O)[C@H]3CCCN3C(=O)[C@H](Cc3ccc(CNC(=O)Cc4ccccc4)cc3)NC(=O)[C@H](c3ccccc3)NC(=O)CCC(=O)Nc3cccc2c3)cc1OC [Compound 1586] | Med | –
CCCCCCNC(=O)Cc1ccc(C[C@@H]2NC(=O)[C@H](c3ccccc3)NC(=O)CCC(=O)Nc3cccc(c3)[C@@H](CCc3ccc(OC)c(OC)c3)OC(=O)[C@@H]3CCCCN3C(=O)C(=O)C(C)(C)COC(=O)C=CCCN(C)C(=O)[C@H](CC(C)C)N(C)C(=O)[C@H]3CCCN3C2=O)cc1 [Compound 1591] | Med | –
COc1ccc(CC[C@H]2OC(=O)[C@@H]3CCCCN3C(=O)C(=O)C(C)(C)COC(=O)C=CCCN(C)C(=O)[C@H](CC(C)C)N(C)C(=O)[C@H]3CCCN3C(=O)[C@H](Cc3ccc(CNC(=O)CN(C)C)cc3)NC(=O)[C@H](c3ccccc3)NC(=O)CCC(=O)Nc3cccc2c3)cc1OC [Compound 1587] | Low (“Low” indicates a response greater than 0.6 times the activity relative to DMSO) | –
COc1ccc(CC[C@H]2OC(=O)[C@@H]3CCCCN3C(=O)C(=O)C(C)(C)COC(=O)C=CCCN(C)C(=O)[C@H](CC(C)C)N(C)C(=O)[C@H]3CCCN3C(=O)[C@H](Cc3ccc(O)cc3)NC(=O)C(c3ccccc3)NC(=O)CCC(=O)Nc3cccc2c3)cc1OC (stereo partly shown) [Compound 1522] | high | –
COc1cc(CC[C@H]2OC(=O)[C@@H]3CCCCN3C(=O)C(=O)C(C)(C)COC(=O)C=CCCN(C)C(=O)[C@@H](Cc3ccccc3)NC(=O)CN(C)C(=O)[C@@H](Cc3ccccc3)NC(=O)[C@H](Cc3ccc(O)cc3)N(C)C(=O)COc3cccc2c3)cc(OC)c1OC [Compound 1566] | medium | –
COc1cc(O)c(CC[C@H]2OC(=O)[C@@H]3CCCCN3C(=O)C(=O)C(C)(C)COC(=O)C=CCCN(C)C(=O)[C@@H](Cc3ccccc3)NC(=O)CN(C)C(=O)[C@@H](Cc3ccccc3)NC(=O)[C@H](Cc3ccc(O)cc3)N(C)C(=O)COc3cccc2c3)cc1OC [Compound 1568] | low | –
COc1ccc(CC[C@H]2OC(=O)[C@@H]3CCCCN3C(=O)C(=O)C(C)(C)COC(=O)C=CCCN(C)C(=O)[C@H](CC(C)C)N(C)C(=O)[C@H]3CCCN3C(=O)[C@H](Cc3ccc(C(=O)Nc4cccnc4)cc3)NC(=O)[C@H](c3ccccc3)NC(=O)CCC(=O)Nc3cccc2c3)cc1OC [Compound 1562] | low | –
COc1ccc(CC[C@H]2OC(=O)[C@@H]3CCCCN3C(=O)C(=O)C(C)(C)COC(=O)C=CCCN(C)C(=O)[C@H](CC(C)C)N(C)C(=O)[C@H]3CCCN3C(=O)[C@H](CC(=O)OC(C)(C)C)N(C)C(=O)C(c3ccccc3)NC(=O)CCC(=O)Nc3cccc2c3)cc1OC (stereo partly shown) [Compound 1066] | – | high
COc1ccc(CC[C@H]2OC(=O)[C@@H]3CCCCN3C(=O)C(=O)C(C)(C)COC(=O)C=CCCN(C)C(=O)[C@H](CC(C)C)N(C)C(=O)[C@H]3CCCN3C(=O)[C@H](Cc3ccc(C(=O)NCCO)cc3)NC(=O)[C@H](c3ccccc3)NC(=O)CCC(=O)Nc3cccc2c3)cc1OC [Compound 1558] | high | –
COc1ccc(CC[C@H]2OC(=O)[C@@H]3CCCCN3C(=O)C(=O)C(C)(C)COC(=O)C=CCCN(C)C(=O)[C@H](CC(C)C)N(C)C(=O)[C@H]3CCCN3C(=O)[C@H](Cc3ccc(CNC(=O)c4ccccc4)cc3)NC(=O)[C@H](c3ccccc3)NC(=O)CCC(=O)Nc3cccc2c3)cc1OC [Compound 1585] | High (“High” indicates a response less than 0.3 times the activity relative to DMSO) | –
COc1ccc(CC[C@H]2OC(=O)[C@@H]3CCCCN3C(=O)C(=O)C(C)(C)COC(=O)C=CCCN(C)C(=O)[C@@H](Cc3ccccc3)NC(=O)CN(C)C(=O)[C@@H](Cc3ccccc3)NC(=O)[C@H](Cc3ccc(O)cc3)N(C)C(=O)COc3cncc2c3)cc1OC [Compound 1580] | low | –
COc1ccc(CC[C@H]2OC(=O)[C@@H]3CCCCN3C(=O)C(=O)C(C)(C)COC(=O)C=CCCN(C)C(=O)[C@H](CC(C)C)N(C)C(=O)[C@H]3CCCN3C(=O)[C@H](Cc3ccc(OCc4ccccc4)cc3)NC(=O)C(c3ccccc3)NC(=O)CCC(=O)Nc3cccc2c3)cc1OC (stereo partly shown) [Compound 1082] | – | low
COc1ccc(CC[C@H]2OC(=O)[C@@H]3CCCCN3C(=O)C(=O)C(C)(C)COC(=O)C=CCCN(C)C(=O)[C@@H](c3ccccc3)NC(=O)[C@H](Cc3ccc(OP(C)(C)=O)cc3)NC(=O)[C@H]3CCCN3C(=O)[C@H](CC(C)C)N(C)C(=O)COc3cccc2c3)cc1OC [Compound 1520] | low | –
CCCC[C@H]1C(=O)N[C@@H](Cc2ccc3ccccc3c2)C(=O)N(C)[C@@H](COC(C)(C)C)C(=O)NCC(=O)N(C)CCC=CC(=O)OCC(C)(C)C(=O)C(=O)N2CCCC[C@H]2C(=O)O[C@H](CCc2ccc(OC)c(O)c2)c2cccc(c2)OCC(=O)N1C [Compound 1564] | high | –
COc1ccc(CC[C@H]2OC(=O)[C@@H]3CCCCN3C(=O)C(=O)C(C)(C)COC(=O)C=CCCN(C)C(=O)[C@H](CC(C)C)N(C)C(=O)[C@H]3CCCN3C(=O)[C@H](Cc3ccc(CC(=O)NCc4ccccc4)cc3)NC(=O)[C@H](c3ccccc3)NC(=O)CCC(=O)Nc3cccc2c3)cc1OC [Compound 1590] | High (“High” indicates a response less than 0.3 times the activity relative to DMSO) | –
CCCC[C@H]1C(=O)N[C@@H](Cc2ccc3ccccc3c2)C(=O)N(C)[C@@H](COC(C)(C)C)C(=O)NCC(=O)N(C)CCC=CC(=O)OCC(C)(C)C(=O)C(=O)N2CCCC[C@H]2C(=O)O[C@H](CCc2ccc(OC)c(OC)c2)c2cccc(c2F)OCC(=O)N1C [Compound 1563] | high | –
COc1ccc(CC[C@H]2OC(=O)[C@@H]3CCCCN3C(=O)C(=O)C(C)(C)COC(=O)C=CCCN(C)C(=O)[C@@H](Cc3ccccc3)NC(=O)CN(C)C(=O)[C@@H](Cc3ccccc3)NC(=O)[C@H](Cc3ccc(O)cc3)N(C)C(=O)COc3cccc2c3F)cc1OC [Compound 1579] | medium | –
